Target: T1, PylRSc (truncated PylRS, residues 185-454); mutant DFRSc (Methanosarcina mazei, UniProt Q8PWY1, S193R/N346G/C348Q/V401G, form not given)
T1 construct: gene pylS; C-terminal catalytic domain, residues 185-454, expressed in E. coli BL21 (DE3), Ni-NTA purified (DFRSc)
Assay: ATP-[…]PPi exchange assay (amino acid activation)
Assay type: biochemical
Conditions: apparent, 2 mM ATP, 1 mM PPi, 10 mM MgCl2, pH 7.2, 37°C, header prints μM × 10^3, text mM, read-out: K M , μM × 10^3

T1 sequence (Q8PWY1 185-454 S193R/N346G/C348Q/V401G, form open): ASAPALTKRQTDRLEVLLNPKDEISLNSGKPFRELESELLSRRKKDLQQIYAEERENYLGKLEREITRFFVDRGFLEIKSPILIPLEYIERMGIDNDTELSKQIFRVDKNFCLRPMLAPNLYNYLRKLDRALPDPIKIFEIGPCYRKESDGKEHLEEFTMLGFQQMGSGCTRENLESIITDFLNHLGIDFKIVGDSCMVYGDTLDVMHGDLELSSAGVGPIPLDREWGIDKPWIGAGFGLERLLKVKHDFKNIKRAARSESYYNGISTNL

SMILES	Km [µM]
N[C@@H](Cc1cccc(C(F)(F)F)c1)C(=O)O [compound 2, L-CF3-Phe]	7120 ± 1670
N[C@@H](Cc1cccc(Cl)c1)C(=O)O [compound 4, L-Cl-Phe]	5380 ± 1280
N[C@@H](Cc1cccc(Br)c1)C(=O)O [compound 6, L-Br-Phe]	9800 ± 1650
